# Measured values: patent US8592451B2, “Reversible nondepolarizing neuromuscular blockade agents and methods for their use” (Cornell University, priority 2009, dated 2013)
# “Also recorded” adds a separate entry of the source.
# Columns and labels:
# [1] = L-cysteine adduction kinetics in vitro (HPLC); type: physicochemical; conditions: pH 7.4, 37° C.; for NMBA peak area / [NMBA] remaining / ln* = ln (([NMBA]t[L-cysteine]t=0)/([NMBA]t=0[L-cysteine]t)): CW 002 1000 μg/mL + 1.05 equiv. L-cysteine
# Protocol: In a second experiment, to evaluate degradation in the presence of L-cysteine, buffered solutions (pH 7.4) of gantacurium, CW 002 or CW 011 were freshly prepared at 37° C. to give experimental concentrations of 1000 μg/mL (CW 002 and CW 011) and 200 μg/mL (gantacurium), after addition to and mixing with a 5% Molar excess of L-cysteine at time=0.
# The concentration of neuromuscular blocking agent/parent compound remaining at specified time points after mixing was determined by high performance liquid chromatography. The concentration of blocking agent at each time point was determined from a separately prepared reaction mixture, due to the rapid rate of L-cysteine adduction. The reaction rate constant for the second order reaction of each neuromuscular blockade agent (NMBA) with L-cysteine was derived by plotting the natural log of ([NMBA]t[L-cysteine]t=0/[NMBA]t=0[L-cysteine]t) vs. time.
# Concentrations selected were 200, 100 and 50 μg/ml which are approximately proportional to the relative potencies (ED 95) of gantacurium, CW 002 and CW 011 respectively. A degradation (adduction) pathway in the presence of L-cysteine for each of the three compounds was proposed.
# The reaction of L-cysteine with CW 002, CW 011 or gantacurium is first order in the case of both the neuromuscular blockade agent (NMBA) and L-cysteine, represented by the rate equation (1). d[Adduct]/dt=−d[NMBA]/dt=ka[NMBA][L-cysteine] (1)
# Calculation of the L-cysteine adduction half time requires experimental derivation of the reaction rate constant, ka, for each compound. The initial concentrations of NMBA and L-cysteine are unequal in the experiments conducted for this study, thus integration of equation 1 gives equation 2, where [NMBA]0 is the NMBA concentration at time equals 0 and [NMBA]t is the NMBA concentration at a time point, t.
# [formula] A plot of the ln(([NMBA]t [L-cysteine]0)/([NMBA]0 [L-cysteine]t)) versus time (ln* vs. t) gives a line, with slope equal to ka([NMBA]0−[L-cysteine]0). An adduction reaction half time can be calculated by solving for ka to be used in equation 3.
# NMBA standard solutions were prepared by a method similar to that used to prepare hydrolysis standards. The standards were prepared at 1000 μg/mL for CW 002 and CW 011 and 200 μg/mL for gantacurium.
# Solutions used for determination of NMBA concentration at the reported times for CW 002 and CW 011 were prepared as follows: L-cysteine hydrochloride monohydrate was charged to a volumetric flask in de-ionized water. A 5 mL aliquot of the L-cysteine solution (1.05 equiv. L-cysteine with respect to NMBA) was transferred by volumetric pipette to a flask held at 37.0±0.3° C. CW 002 or CW 011 was then charged to a separate 25 mL volumetric flask and diluted to volume with pH 7.4 phosphate buffer at 37.0° C. The NMBA solution was then immediately transferred to the flask containing L-cysteine to give an initial NMBA concentration of 1000 μg/mL. Solutions used for determination of gantacurium concentration versus time were prepared in a similar manner to give an initial concentration of 200 μg/mL. T=0 was defined as the time of addition of NMBA solution to L-cysteine solution. The times listed in the results table show the point of HPLC sample injection following mixing of L-cysteine and NMBA at time=0 (Table 1, below).
# Rate constants were calculated using equation (3) and the slope of the trend line derived from each data set. The strong linear correlation of the data within each set supports the use of second order kinetics for analysis of the cysteine adduction reactions.
# Reaction half times were calculated using equation 4 and the experimentally determined rate constants. The initial NMBA concentrations were chosen to reflect the relative potency observed in vivo.
# [2] = tested on: twitch of the extensor digitorum; test: Reversal of neuromuscular blockade by L-cysteine or neostigmine in anesthetized rhesus monkeys; type: in vivo, rhesus monkeys (Macaca mulatta)
# Protocol: A control dose of 0.15 mg/kg CW 002 was allowed to recover spontaneously to TOF 110-120%. A second dose was given 60 minutes later, followed one minute afterwards by either neostigmine (0.05 mg/kg+atropine 0.05 mg/kg) or L-cysteine (10, 20, 30 or 50 mg/kg). Total duration and 5-95% recovery intervals were compared during spontaneous recovery vs. antagonism by L-cysteine or reversal by neostigmine.
# This series of paired comparisons was designed to generate dose-response data comparing spontaneous recovery of high doses of CW 011 (from 4 to 64× ED95) versus immediate antagonism at +1 min by an optimal dose of L-cysteine (50 mg/kg), previously determined during studies of immediate antagonism of CW 002. This experiment was done to explore the limits of chemical antagonism by L-cysteine of these olefinic diester neuromuscular blocking drugs, using CW 011 as a typical example with an intermediate duration of action. Five groups of animals first received a control dose of CW 011 at 4, 8, 16, 32 or 64× ED 95 (0.1 to 1.6 mg/kg). Sixty minutes after spontaneous recovery of the control dose to TOF 110-120%, the same dose was repeated, followed 1 min later by L-cysteine (50 mg/kg). Total duration of action and 5-95% recovery interval were compared during spontaneous recovery and following antagonism by L-cysteine
# The reversal of neuromuscular blockade by cysteine (5-50 mg/kg i.v.) was studied. Reversal was tested as follows: full paralysis was induced by injection of a dose of approximately 2-6× ED 95 of the compound in question. After spontaneous recovery of this dose, a second identical dose was given 15-30 min later. Cysteine was then given at +1 min after injection of the neuromuscular blocking drug at a point where no twitch was apparent (“immediate reversal”) or at the beginning of recovery from neuromuscular blockade at two percent twitch height (“classical reversal”). Comparisons were made among compounds with respect to rapidity and ease of cysteine reversal, by comparing 5-95% recovery times, and total durations of action (injection to 95% twitch recovery). Spontaneous recovery was compared with cysteine-accelerated recovery. […]
# [3] = tested on: twitch contractions of the extensor digitorum muscle; test: Rhesus monkey anesthesia bioassay for potency and duration (substituent and stereochemical comparison, preliminary studies); type: in vivo; conditions: rhesus monkeys
# Protocol: Two stereoisomeric structures, CW 002 (R-trans, R-trans), and CW 003 (R-cis, R-cis) were tested in the rhesus monkey anesthesia bioassay for potency and duration. A third compound, CW 001 (R-trans, R-trans) bearing an additional methoxyl group on each of the two benzyl groups in the molecule, was also tested.
# Rhesus monkeys were anesthetized with ketamine (7.5 mg/Kg) given intramuscularly or intravenously. Anesthesia was maintained with a mixture of isoflurane (1.5%), nitrous oxide (60%) and oxygen (40%). The common peroneal nerve was stimulated supramaximally with square wave pulses of 0.2 m sec duration at a rate of 0.15 Hz. Twitch contractions were recorded via the tendon of the extensor digitorum muscle.
# In all animals, the trachea was intubated and ventilation was controlled at 12-15 ml/kg, 18-24 breaths per minute. A peripheral vein and artery were cannulated for drug administration and for recording of arterial pressure, respectively. In preliminary studies a neuromuscular blocking agent having one of the following structures was administered intravenously.
smiles,measurement,setting,value
COc1ccc(C[C@@H]2c3cc(OC)c(OC)cc3CC[N@@+]2(C)CCCOC(=O)/C=C/C(=O)OCCC[N@+]2(C)CCc3cc(OC)c(OC)cc3[C@H]2Cc2ccc(OC)c(OC)c2)cc1OC [CW 002],NMBA peak area,"[1]; Trial 1, 142 Sec",2746.0 mAU's
same,[NMBA] remaining,"[1]; Trial 1, 142 Sec",224 µM
same,ln* = ln (([NMBA]t[L-cysteine]t=0)/([NMBA]t=0[L-cysteine]t)),"[1]; Trial 1, 142 Sec",−0.240
same,NMBA peak area,"[1]; Trial 2, 170 Sec",2350.7 mAU's
same,[NMBA] remaining,"[1]; Trial 2, 170 Sec",192 µM
same,ln* = ln (([NMBA]t[L-cysteine]t=0)/([NMBA]t=0[L-cysteine]t)),"[1]; Trial 2, 170 Sec",−0.277
same,NMBA peak area,"[1]; Trial 3, 188 Sec",2237.9 mAU's
same,[NMBA] remaining,"[1]; Trial 3, 188 Sec",183 µM
same,ln* = ln (([NMBA]t[L-cysteine]t=0)/([NMBA]t=0[L-cysteine]t)),"[1]; Trial 3, 188 Sec",−0.297
same,Plot Slope (ln* vs. time),"[1]; L-cysteine adduction, data of Table 1",−0.0012
same,"ka, second order rate constant of L-cysteine adduction",[1],14.3 M⁻¹ s⁻¹
same,half-life at 100 μg/ml,"[1]; pH 7.4 phosphate buffer with L-cysteine, calculated at [NMBA]0 0.000102 M (100 μg/ml), read-out: L-cysteine adduction reaction half time t1/2",11.4 min
same,immediate antagonism of blockade by L-cysteine (FIG. 1B),"[2]; CW 002 0.15 mg/kg (~4× ED 95), L-cysteine 10, 20, 30 or 50 mg/kg at +1 min",dose-related acceleration of recovery
same,immediate antagonism of blockade by neostigmine (FIG. 1A),"[2]; CW 002 0.15 mg/kg (~4× ED 95), neostigmine 0.05 mg/kg + atropine 0.05 mg/kg at +1 min",not achieved significantly faster than the spontaneous reversal; also recorded: did not shorten recovery
same,time to reversal of blockade with cysteine (FIG. 1B),"[2]; CW 002 0.15 mg/kg, all cysteine concentrations tested (10 to 50 mg/kg)",less than 6 minutes
same,time from cysteine administration to beginning of reversal (FIG. 1B),"[2]; CW 002 0.15 mg/kg, higher cysteine doses",2 to 3 min
same,time to spontaneous reversal of blockade (FIG. 1),"[2]; CW 002 0.15 mg/kg, no reversal agent",more than 12 minutes
same,reversibility of neuromuscular blockade by thiol compounds,[2]; cysteine (L or D) or glutathione,reversible
same,effect of neostigmine given immediately after the blocking drug,[2]; immediate reversal,ineffective
same,classical antagonism of neuromuscular blockade by neostigmine,"[2]; neostigmine given at beginning of spontaneous recovery, e.g. at 2% twitch height",showed antagonism
same,reversibility of effect by cysteine or glutathione,[3],reversible
same,Potency (ED95 mg/kg),"[3]; intravenously, preliminary studies",0.04 mg/kg
same,Duration at 4X ED95,"[3]; preliminary studies, 4X ED95, head prints no unit (column beside it: minutes)",30-35
same,"Duration (minutes), from injection to 95% twitch recovery","[3]; preliminary studies, dose not printed (beside ED95 column)",20 to 25 min
